Patent publication US8629154B2, “Substituted cycloalcano[e and d] pyrazolo [1,5-a]pyrimidines/antagonists of serotonin 5-HT6 receptors and methods for production and the use thereof” (priority 2008, dated 2014)

Assays:
5-HT6 receptor [1] = molecular target: T1, 5-HT6 receptor (Homo sapiens (Human), UniProt P50406); experiment: Functional assay: inhibition of serotonin-induced intracellular cAMP (LANCE cAMP) in HEK 293 cells expressing 5-HT6 receptor; format: cell-based; details: read-out: IC50 of serotonin 5-HT6 receptor inhibition in the setting of functional assay
Method: Determination of antagonistic activity of compounds of general formulas 1 and 2 towards 5-HT6 receptors. Compounds of general formulas 1 and 2 were tested for their ability to prevent 5-HT6 receptors activation by serotonin. HEK 293 cells (cells of human embryo's kidney) with artificially expressed 5-HT6 receptor, activation of which by serotonin leads to increasing the concentration of intracellular cAMP were used. The content of intracellular cAMP was determined using reagent kit LANCE cAMP (PerkinElmer) according to the method described by the manufacturer of the kit [http://las.perkinelmer.com/content/Manuals/MAN_LANCEcAMP384KitUser.pdf].
Effectiveness of compounds was estimated by their ability to reduce the content of intracellular cAMP induced by serotonin.

5-HT6 receptor [2] = molecular target: T1, 5-HT6 receptor; experiment: Competitive radioligand binding ([3H] Lysergic acid diethylamide) to membranes of HeLa cells expressing 5-HT6 receptor; details: 1.5 nM [3H] Lysergic acid diethylamide, HeLa cell membranes; for IC50: read-out: IC50 of serotonin 5-HT6 receptor inhibition in the setting of competitive binding; for Ki: read-out: Ki of serotonin 5-HT6 receptor inhibition in the setting of competitive binding
Method: Activity determination of serotonin 5-HT6 receptor antagonists of the general formula 1 in the setting of competitive binding to serotonin 5-HT6 receptors.
Screening of disclosed compounds for their potential ability to interact with serotonin 5-HT6 receptors was carried out by method of radioligand binding. For this purpose membrane species were prepared from HeLa cells expressing recombinant human 5-HT6 receptor by means of their homogenization in glass homogenizer with subsequent separation of plasmatic membranes from cell nucli, mitochondria's and cell wreckages by differential centrifugation. Determination of tested compounds binding with 5-HT6 receptors was carried out according to the method described in [Monsma F J Jr, Shen Y, Ward R P, Hamblin M W and Sibley D R, Cloning and expression of a novel serotonin receptor with high affinity for tricyclic psychotropic drugs. Mol. Pharmacol. 43:320-327, 1993]. In the preferred embodiment membrane preparations were incubated with radioligand (1.5 nM [^3H] Lysergic acid diethylamide) without and in the presence of investigated compounds for […] at 37° C. in medium consisting of […], pH 7.4, 150 mM NaCl, 2 mM Ascorbic Acid, 0.001% BSA. After incubation the samples were filtered in vacuo on glass-microfiber filters G/F (Millipor, USA), filters were washed three times with cold solution of medium and radioactivity was measured by scintillation counter MicroBeta 340 (PerkinElmer, USA). Nonspecific binding which made up 30% of overall binding was determined by incubation of membrane preparations with radioligand in the presence of 5 μM Serotonin (5-HT). Methiothepin was used as positive control. Binding of tested compounds with the receptor was determined by their ability to displace the radioligand and expressed in percent of displacement. The percent of displacement was calculated according to the following equation:
[formula] wherein: TA—was overall radioactivity in presence of radioligand only, CA—was radioactivity in presence of radioligand and tested compound and NA—was radioactivity in presence of radioligand and Serotonin (5 μM).

[3] = test system: aged male mice of BALB/c line; experiment: Passive Avoidance of mice in the Shuttle Chamber, memory disturbed by Scopolamine; format: in vivo; details: Scopolamine 0.3 mg/kg, 30 minutes before training
Method: A shuttle chamber (Ugo Basile, Italy) consisted of two sections was used. The walls of one section were opaque while the second section had transparent cover. The sections were connected through a hole which could be overlapped by vertical door. The floor was made of transverse metal bars on which DC current impulses could be fed. Experiments were carried out in aged male mice of BALB/c line weighing 20-24 grams. On the first day of experiment 30 minutes before training mice were injected […] with physiological solutions of Scopolamine (0.3 mg/kg) or Scopolamine in combination with active ingredient 1.2(3). Each group consisted of at least 8 animals. Animals were placed in light section, and latent period of the first entry into dark chamber was registered. Then vertical door was closed and the animal was punished by 0.6 mA DC current for 3 seconds. After that the animal was returned to its living cage. In 22-24 hours the same animal was placed again in light section of the shuttle chamber and the latent period of its first entry into the dark section, the total time of its stay in the light section and the number of entries into the dark section was registered. Each monitoring lasted for 5 minutes. The experiment was carried out during the day time in isolated laboratory using white noise at level of about 70 decibel above human hearing threshold. […]

mice [4] = experiment: Passive Avoidance of mice in the Shuttle Chamber, memory disturbed by MK-801; format: in vivo; details: MK-801 0.1 mg/kg, 30 minutes before training
Method: A shuttle chamber (Ugo Basile, Italy) consisted of two sections was used. The walls of one section were opaque while the second section had transparent cover. The sections were connected through a hole which could be overlapped by vertical door. The floor was made of transverse metal bars on which DC current impulses could be fed. Experiments were carried out in aged male mice of BALB/c line weighing 20-24 grams.
On the first day of experiment 30 minutes before training mice were injected […] with physiological solutions of Scopolamine (0.3 mg/kg) or Scopolamine in combination with active ingredient 1.2(3). Each group consisted of at least 8 animals. Animals were placed in light section, and latent period of the first entry into dark chamber was registered. Then vertical door was closed and the animal was punished by 0.6 mA DC current for 3 seconds. After that the animal was returned to its living cage. In 22-24 hours the same animal was placed again in light section of the shuttle chamber and the latent period of its first entry into the dark section, the total time of its stay in the light section and the number of entries into the dark section was registered. Each monitoring lasted for 5 minutes.
The experiment was carried out as in example 7. […]

mice [5] = experiment: Mice Behavior in the Elevated Plus Maze; format: in vivo
Source text: Anxiolytic (tranquilizing) action of compounds of general formulas 1 and 2 in the test “Mice Behavior in the Elevated Plus Maze”. The length of each arm in the labyrinth is 30 cm, the width is 5 cm, and the height of walls is 15 cm. Two opposite arms are closed from sides and end faces by transparent walls, the other two arms are lit and opened. A mouse was placed in the center of maze and for the next five minutes the number of entries the opened and closed arms and the time spent in each type of arms was registered. […] The animals usually avoid the open arms (the preference index is between 0.2 and 0.3). Compounds with tranquilizing action increase this index up to 0.5-0.6 or even more and reduce the number of defecations without changing the overall motion activity of the mice (the total number of their entries to the arms).

T1 sequence (P50406 whole entry): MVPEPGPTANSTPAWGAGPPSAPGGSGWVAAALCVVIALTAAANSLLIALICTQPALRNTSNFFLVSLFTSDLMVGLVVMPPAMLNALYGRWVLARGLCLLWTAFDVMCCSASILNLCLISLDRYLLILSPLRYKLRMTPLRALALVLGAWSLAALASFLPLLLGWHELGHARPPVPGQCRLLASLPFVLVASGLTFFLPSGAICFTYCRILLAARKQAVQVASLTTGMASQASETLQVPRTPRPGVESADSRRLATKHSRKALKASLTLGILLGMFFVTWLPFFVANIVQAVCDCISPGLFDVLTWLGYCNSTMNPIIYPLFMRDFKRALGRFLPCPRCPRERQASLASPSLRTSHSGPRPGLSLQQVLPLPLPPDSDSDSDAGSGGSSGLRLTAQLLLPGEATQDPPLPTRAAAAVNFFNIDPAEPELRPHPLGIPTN

Row | SMILES | IC50 (5-HT6 receptor [1]) | IC50 (5-HT6 receptor [2]) | Ki (5-HT6 receptor [2]) | Nootropic action (enhancement of memory disturbed by Scopolamine) [3] | Nootropic action (enhancement of memory disturbed by MK-801) (mice [4]) | Anxiolytic (tranquilizing) action (mice [5])
1 | CSc1nn2c3c(cnc2c1S(=O)(=O)c1ccccc1)CCC3 [1.1(1), 2-methylsulfanyl-3-(phenylsulfonyl)-7,8-dihydro-6H-cyclopenta[e]pyrazolo[1,5-a]pyrimidine] | 27 nM | 0.986 nM | 0.458 nM |  |  | 
2 | CSc1nn2c3c(cnc2c1S(=O)(=O)c1ccccc1)CCCC3 [1.2(1), 2-methylsulfanyl-3-(phenylsulfonyl)-6,7,8,9-tetrahydrocyclohexa[e]pyrazolo[1,5-a]pyrimidine] | 35 nM | 1.18 nM | 0.549 nM |  |  | 
3 | CSc1nn2cc3c(nc2c1S(=O)(=O)c1ccccc1)CCCC3 [2(1)] | 479 nM | 17.2 nM | 7.97 nM |  |  | 

More lines, in order of falling IC50 (5-HT6 receptor [1]), values ahead:

Row | IC50 (5-HT6 receptor [1]) | IC50 (5-HT6 receptor [2]) | Ki (5-HT6 receptor [2]) | SMILES | Nootropic action (enhancement of memory disturbed by Scopolamine) [3] | Nootropic action (enhancement of memory disturbed by MK-801) (mice [4]) | Anxiolytic (tranquilizing) action (mice [5])
4 | 32 nM | 0.948 nM | 0.44 nM | CSc1nn2c3c(c(C)nc2c1S(=O)(=O)c1ccccc1)CCCC3 [1.2(3), 5-methyl-2-methylsulfanyl-3-(phenylsulfonyl)-6,7,8,9-tetrahydrocyclohexa[e]pyrazolo[1,5-a]pyrimidine] | confirm nootropic action | produce nootropic effect | exhibits an anxiolytic (tranquilizing) action which is comparable with the activity of Buspirone and Lorasepam
5 | 7.8 nM | 1.46 nM | 0.68 nM | CSc1nn2c(C)c3c(nc2c1S(=O)(=O)c1ccccc1)CCCC3 [2(2)] |  |  | 
